Like-named read-outs stand apart in the source and are kept apart here.
How the values were obtained:
[1] = molecular target: T1, mouse TGR5 receptor (Mus musculus, UniProt Q80SS6); assay: Mouse TGR5 HTRF cAMP production assay (HEK293-EBNA cells, Cisbio cAMP HiRange kit); assay type: cell-based; settings: HEK293-EBNA cells overexpressing mouse TGR5, HTRF cAMP assay
T1 construct: host or cells: HEK293-EBNA (293 c18, ATCC CRL10852)
T1 sequence (Q80SS6 1-329): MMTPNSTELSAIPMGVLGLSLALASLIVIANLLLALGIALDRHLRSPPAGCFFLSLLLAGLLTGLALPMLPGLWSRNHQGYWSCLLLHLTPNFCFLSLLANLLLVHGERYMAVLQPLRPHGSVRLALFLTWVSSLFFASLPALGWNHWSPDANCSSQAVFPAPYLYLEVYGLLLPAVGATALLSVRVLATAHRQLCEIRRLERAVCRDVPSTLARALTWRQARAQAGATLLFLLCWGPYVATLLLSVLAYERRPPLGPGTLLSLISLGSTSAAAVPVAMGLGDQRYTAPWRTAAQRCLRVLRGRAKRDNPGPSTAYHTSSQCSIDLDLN
Method in brief: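 HEK293-EBNA cells stably expressing mouse TGR5 (episomal vector) were suspended in serum-free DMEM with 500 μM IBMX and exposed to 12-point half-log compound dilutions for 1 h at room temperature. cAMP was detected by HTRF (d2-cAMP/anti-cAMP cryptate, 1 h, room temperature), giving EC50 from duplicates.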

[2] = molecular target: T2, human TGR5 receptor (Homo sapiens, UniProt Q8TDU6); assay: Human TGR5 cAMP production assay (hTGR5-CHO cells, DiscoveRx cAMP XS+ kit); assay type: cell-based; settings: luminescent cAMP assay, read-out: Human TGR5 Lum. cAMP Activity (EC50)
T2 construct: host or cells: CHO-K1 (hTGR5-CHO)
T2 sequence (Q8TDU6 1-330): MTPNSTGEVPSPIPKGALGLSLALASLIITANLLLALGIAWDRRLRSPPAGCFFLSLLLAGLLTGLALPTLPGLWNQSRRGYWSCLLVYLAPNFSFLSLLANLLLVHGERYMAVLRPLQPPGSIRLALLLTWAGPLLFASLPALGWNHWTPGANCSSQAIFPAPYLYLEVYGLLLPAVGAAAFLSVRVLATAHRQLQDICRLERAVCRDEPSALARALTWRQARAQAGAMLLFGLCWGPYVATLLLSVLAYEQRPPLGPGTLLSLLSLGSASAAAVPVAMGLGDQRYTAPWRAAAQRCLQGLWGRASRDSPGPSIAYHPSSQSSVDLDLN
Method in brief: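 CHO-K1 cells stably expressing hTGR5, in PBS with IBMX and cAMP antibody, treated with half-log compound dilutions for 1 h at room temperature. cAMP measured by enzyme-fragment complementation luminescence after overnight detection; EC50 values reported.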

[3] = Pharmacokinetic profile in mice after oral gavage; assay type: in vivo, mouse; parameters: unit: ng/mL; settings: fasted male Hilltop mice, 10 mg/kg oral gavage, plasma
Procedure: Pharmacokinetic Profile in Mice
In this series of studies, the pharmacokinetic profile characteristics of compounds of the present invention were evaluated. The plasma concentration levels of the compounds were monitored in the blood stream (i.e., plasma) after oral gavage using Cmax, and area under the curve (AUC).
8 week old male Hilltop mice were fasted overnight. Animals were randomized into groups (n=9) by body weight. Mice were dosed with 10 mg/kg compound (in 20% PEG400/80% 0.5% carboxymethylcellulose (medium viscosity)+0.25% Tween-80) at a volume of […] through oral gavage. Blood was collected via orbital bleeding at 0, 0.25, 0.5, 1, 2, and 4 h post-dose, with no one mouse having more than 3 blood draws. Blood was collected in EDTA coated tubes. Samples were stored at −20° C. until analysis.
Quantitation of compound levels in plasma was accomplished by LC-MS/MS analysis. Standard curve and quality control samples were prepared in male CD-1 mouse plasma containing EDTA K^2+ as an anticoagulant at final concentrations ranging from 500 to 0.1 ng/mL. The plasma samples, calibration curve standards, and quality control samples were prepared in an identical method in a 96-well deep plate (1 mL) with a quenching solution (1:1 mixed acetonitrile:methanol containing the internal standard Reserpine @ 400 ng/mL). Low volume samples were supplemented with CD-1 mouse plasma. The plate was mixed on multi-tube vortexer for 1 min and centrifuged at 4000 rpm for 30 min at 4° C. (Sorvall® Super T21) before LC-MS/MS analysis. LC conditions were developed and optimized based on each compound as needed. The outlet of the column was coupled to AB Sciex 4000 QTrap Mass Spectrometer (AB Sciex, Brugg Switzerland). Detection was carried out using multiple reaction monitoring mode with positive-ion detection focusing. The pharmacokinetic parameters were derived from the plasma-time data and calculated using the standard non-compartmental method with WinNonlin (Pharsight, Mountain View, Calif.) or PK Solver (Comp. Meth. Prog. Biomed. (2010), 99, 306-314).
Values reported are the mean plasma concentration of three mice. […]

Compound	EC50 [1]	EC50 [2]	Cmax ([3]; mouse, read-out: Cmax)	Cmax [3]
O=C(CCCC1CCN(c2cc(N3CCC[C@H]3C(=O)NCCc3ccc(C(F)(F)F)cc3)nc(C(F)(F)F)n2)CC1)NCCNS(=O)(=O)c1ccc(C(=O)O)cc1 [Compound 94, (S)-4-(N-(2-(4-(1-(2-(trifluoromethyl)-6-(2-((4-(trifluoromethyl)phenethyl)-carbamoyl)-pyrrolidin-1-yl)pyrimidin-4-yl)piperidin-4-yl)butanamido)ethyl)-sulfamoyl)benzoic acid]	< 0.1 µM	< 0.1 µM	26 ng/mL	
N#Cc1ccc(CCNC(=O)[C@@H]2CCCN2c2cc(N3CCC(CCCC(=O)NCCOCCOCCNC(=N)N)CC3)nc(C(F)(F)F)n2)cc1 [Compound 127, (S)-1-(6-(4-(1-amino-1-imino-12-oxo-5,8-dioxa-2,11-diazapentadecan-15-yl)piperidin-1-yl)-2-(trifluoromethyl)-pyrimidin-4-yl)-N-(4-cyanophenethyl)-pyrrolidine-2-carboxamide]	< 0.1 µM	< 0.1 µM	11 ng/mL	
N=C(N)NCCNC(=O)CCCC1CCN(c2cc(N3CCC[C@H]3C(=O)NCCc3ccc(C(F)(F)F)cc3)nc(C(F)(F)F)n2)CC1 [Compound 131, (S)-1-(6-(4-(4-((2-guanidinoethyl)-amino)-4-oxobutyl)piperidin-1-yl)-2-(trifluoromethyl)pyrimidin-4-yl)-N-(4-(trifluoromethyl)phenethyl)pyrrolidine-2-carboxamide]	< 0.1 µM	< 0.1 µM	12 ng/mL	
N#Cc1ccc(CCNC(=O)[C@@H]2CCCN2c2cc(N3CCC(CCCNC(=O)NCCS(=O)(=O)O)CC3)nc(C(F)(F)F)n2)cc1 [Compound 119, (S)-2-(3-(3-(1-(6-(2-((4-cyanophenethyl)carbamoyl)pyrrolidin-1-yl)-2-(trifluoromethyl)pyrimidin-4-yl)piperidin-4-yl)propyl)ureido)-ethanesulfonic acid]	< 0.1 µM	< 0.1 µM	16 ng/mL	
N#Cc1ccc(CCNC(=O)[C@@H]2CCCN2c2cc(N3CCC(COCC(=O)NCCS(=O)(=O)O)CC3)nc(C(F)(F)F)n2)cc1 [Compound 89, (S)-2-(2-((1-(6-(2-((4-cyanophenethyl)carbamoyl)pyrrolidin-1-yl)-2-(trifluoromethyl)pyrimidin-4-yl)piperidin-4-yl)methoxy)acetamido)-ethanesulfonic acid]	< 0.1 µM	< 0.1 µM	2.1 ng/mL	
N#Cc1ccc(CCNC(=O)[C@@H]2CCCN2c2cc(N3CCC(CCCC(=O)N[C@H](CC(=O)O)C(=O)O)CC3)nc(C(F)(F)F)n2)cc1 [Compound 75, (R)-2-(4-(1-(6-((S)-2-((4-cyanophenethyl)carbamoyl)pyrrolidin-1-yl)-2-(trifluoromethyl)pyrimidin-4-yl)piperidin-4-yl)butanamido)succinic acid]	< 0.1 µM	< 0.1 µM	22 ng/mL	
O=C(CCCC1CCN(c2cc(N3CCC[C@H]3C(=O)NCCc3ccc(Cl)cc3)nc(C(F)(F)F)n2)CC1)NCS(=O)(=O)O [Compound 137, (S)-(4-(1-(6-(2-((4-chlorophenethyl)-carbamoyl)pyrrolidin-1-yl)-2-(trifluoromethyl)pyrimidin-4-yl)-piperidin-4-yl)butanamido)-methanesulfonic acid]	< 0.1 µM	< 0.1 µM	22 ng/mL	
O=C(NCCCC1CCN(c2cc(N3CCC[C@H]3C(=O)NCCc3ccc(C(F)(F)F)cc3)nc(C(F)(F)F)n2)CC1)NCCS(=O)(=O)O [Compound 87, (S)-2-(3-(3-(1-(2-(trifluoromethyl)-6-(2-((4-(trifluoromethyl)phenethyl)-carbamoyl)-pyrrolidin-1-yl)pyrimidin-4-yl)piperidin-4-yl)propyl)ureido)-ethanesulfonic acid]	< 0.1 µM	< 0.1 µM	35 ng/mL	

The remaining lines, values ahead:

EC50 [1]	EC50 [2]	Cmax ([3]; mouse, read-out: Cmax)	Cmax [3]	Compound
< 0.1 µM	< 0.1 µM	69 ng/mL		O=C(CCCC1CCN(c2cc(N3CCC[C@H]3C(=O)NCCc3cccc(Cl)c3Cl)nc(C(F)(F)F)n2)CC1)NCS(=O)(=O)O [Compound 138, (S)-(4-(1-(6-(2-((2,3-dichlorophenethyl)carbamoyl)pyrrolidin-1-yl)-2-(trifluoromethyl)pyrimidin-4-yl)piperidin-4-yl)butanamido)-methanesulfonic acid]
< 0.1 µM	< 0.1 µM	1.7 ng/mL		N=C(N)NCCS(=O)(=O)N1CCN(c2cc(N3CCC[C@@H](C(=O)NCCc4ccc(C(F)(F)F)cc4)C3)nc(C(F)(F)F)n2)CC1 [Compound 349, (R)-1-(6-(4-((2-guanidinoethyl)sulfonyl)piperazin-1-yl)-2-(trifluoromethyl)-pyrimidin-4-yl)-N-(4-(trifluoromethyl)phenethyl)piperidine-3-carboxamide]
< 0.1 µM	< 0.1 µM	42 ng/mL		N=C(N)NCCC[C@H](NC(=O)CCC1CCN(c2cc(N3CC[C@H]3C(=O)NCCc3ccc(C(F)(F)F)cc3)nc(C(F)(F)F)n2)CC1)C(=O)O [Compound 258, (S)-5-guanidino-2-(3-(1-(2-(trifluoromethyl)-6-((S)-2-((4-(trifluoromethyl)phenethyl)carbamoyl)azetidin-1-yl)pyrimidin-4-yl)piperidin-4-yl)propanamido)pentanoic acid]
< 0.1 µM	< 0.1 µM		48 ng/mL	N#Cc1ccc(CCNC(=O)[C@@H]2CCN2c2cc(N3CCC(CCNS(=O)(=O)NCCC(=O)O)CC3)nc(C(F)(F)F)n2)cc1 [Compound 355]
< 0.1 µM	< 0.1 µM	37 ng/mL		COc1cc(C(F)(F)F)ccc1CCNC(=O)[C@@H]1CCCN(c2cc(N3CCC(CCO)CC3)nc(C(F)(F)F)n2)C1 [Compound 332, (R)-1-(6-(4-(2-hydroxyethyl)piperidin-1-yl)-2-(trifluoromethyl)pyrimidin-4-yl)-N-(2-methoxy-4-(trifluoromethyl)-phenethyl)piperidine-3-carboxamide]

Source: patent publication US10654834B2 (Venenum Biodesign, LLC, priority 2016, dated 2020)
